We go through two compounds from patent US20110021618A1, “METHODS OF TREATING FIBROTIC DISORDERS” (PALOMA PHARMACEUTICALS, INC., priority 2008, published 2011).

Series [1] concerns epiretinal membrane formation. To be noted: human patients; cited from earlier work.
The test system of series [2] is detached retina (Müller cells, microglia and macrophages, photoreceptors). The experiment in a line: Experimental retinal detachment, single intravitreal injection (Example 1). The format is in vivo, rabbit.
For a further series, the system named is SM-α-actin. As to the kind of experiment: TGF-β1 stimulated SM-α-actin in human lung fibroblasts, Western Blot. Type of series: cell-based. The conditions noted are these: 30 μM; 30 minutes pre-treatment before TGF-β1. The text has this: (§1) Transforming growth factor-beta one (TGF-β1) and alpha-Thrombin (α-Thrombin) are known to be involved in the pathogenesis of fibrotic disease. In an in vitro model of pulmonary fibrosis, TGF-β1 stimulates myofibroblast differentiation of human lung fibroblasts characterized by expression of contractile smooth muscle (SM)-specific proteins such as SM-alpha-actin (SM-α-actin). TGF-β1 also stimulates SM-α-actin expression in human lung fibroblasts which parallels a profound induction of serum response factor (SRF) expression and activity. Increased contractile gene expression with SM-α-actin as marker, increased SRF, increased connective tissue growth factor (CTGF) and increased matrix genes (e.g. fibronectin) are examples of effects observed during myofibroblast differentiation. Myofibroblast differentiation is induced by stimulation with TGF-β1 thereby increasing markers of differentiation.
(§2) Human lung fibroblasts were pre-treated with Palomid 529 for 30 minutes prior to TGF-β1 stimulation. Western Blot with antibodies against CTGF, SRG, SM-α-actin and β-actin is shown.

Series [3] can be described thus: Half-life in the vitreous. The format is in vivo.
For series [4], the system named is detached retina (Müller cells). The experiment in a line: Experimental retinal detachment, Müller cell proliferation and glial scar formation (Example 2). Type of series: in vivo, rabbit. The conditions noted are these: 600 micrograms intravitreally in PBS, versus PBS. The protocol:
Methods: Experimental retinal detachments were made in the right eyes of pigmented rabbits. Six hundred micrograms of Palomid 529 in 50 microliters of PBS, or PBS alone was injected intravitreally on day 0, immediately after retinal detachment. Each rabbit received 10 micrograms of BrdU intravitreally on day 3. Animals were sacrificed on day 3 or 7, at which time the tissue was fixed in paraformaldahyde, embedded in agarose and sectioned at 100 microns. The sections were labeled with anti-BrdU, to detect dividing cells, and anti-vimentin, to identify Müller cells. Labeling was imaged on an Olympus Fluoview confocal microscope, and the resultant digital images were analyzed to determine the number of proliferating cells as well as the number and length of subretinal glial scars.

The subject of a further series is SRF. As to the kind of experiment: TGF-β1 stimulated SRF in human lung fibroblasts, Western Blot. The format is cell-based. To be noted: 30 μM; 30 minutes pre-treatment before TGF-β1.
Description: as §1, §2

A further series relates to p-AKT(S473). As to the kind of experiment: AKT phosphorylation in human lung fibroblasts, Western Blot. The conditions noted are these: 30 μM. Type of series: cell-based. How it is done:
Human lung fibroblasts are stimulated for one hour with either TGF-β1 or α-Thrombin in presence of 30 μM Palomid 529 to effect activation of signal transduction proteins. p-AKT(S473) and AKT levels are measured by Western Blot. Scanning software, Scion Image (Scion Corporation, Frederick, Md.), was used to digitize bands on Western Blot for numeric calculation of percent inhibition described in text.

The subject of another series is CTGF. The experiment in a line: TGF-β1 stimulated CTGF in human lung fibroblasts, Western Blot. The format is cell-based. The conditions noted are these: 30 μM; 30 minutes pre-treatment before TGF-β1.
Description: as §1, §2

Setting [5] is: 7-day detachment, versus control.

`O=c1[nH]cc(F)c(=O)[nH]1` [5-fluorouracil]: the “reducing epiretinal membrane formation” value in series [1] is listed as “not effective”.
Turning to `COc1ccc(COc2cc3oc(=O)c4cc(C(C)O)ccc4c3cc2OC)cc1` (stereo not shown) [Palomid 529], the “average number of anti-BrdU labeled Müller cell nuclei” value is on record as 1.19 /mm of retina in series [2] (3-day detachment, 600 μg intravitreally, vehicle control 10.79) and 1.49 /mm of retina in series [2] (7-day detachment, 600 μg intravitreally, vehicle control 9.83). Further, the “reduction of average number of subretinal scars” value in series [2] (setting [5]) was “approximately 4 fold”. For the same compound, in series [2] (setting [5]), the “reduction of length of subretinal scars” value is recorded as “more than 20 fold”. In addition, the “average number of subretinal scars” value in series [2] (7-day detachment, 600 μg intravitreally, control 2.03) is 0.39 /mm of retina. The “total number of isolectin B4 labeled cells (microglia and macrophages)” value in series [2] (7-day detachment, 600 μg intravitreally, control 43.9) is reported as 24.5 /mm retina. Moreover, the “average thickness of the ONL” value in series [2] (7 days of detachment, 600 μg intravitreally, normal retina 34.45 μm, vehicle 19.40 μm) worked out at 27.21 μm. For the same compound, the “average length of subretinal scars” value in series [2] (day 7, 600 μg intravitreally, control 131.28 μm) worked out at 11.01 μm. The “inhibition of TGF-β1 stimulated increase of SM-α-actin” value in the series on SM-α-actin is 65%. The “expected half-life in the vitreous” value in series [3] is reported as “at least 3 months”. Also, the “number of BrdU labeled Müller cells per millimeter” value in series [4] (3 and 7 day time points) was “statistically significant decrease”. In series [4] (day 7), the “number and size of sub-retinal scars” value is on record as “significant decrease”. The “inhibition of TGF-β1 stimulated increase of SRF” value in the series with SRF came to 29%. In addition, in the series on p-AKT(S473) (basal, stated with the TGF-β1 result), the “inhibition of basal level of AKT phosphorylation” value was determined as 13%. In addition, the “decrease of AKT phosphorylation in the absence of α-Thrombin (basal level)” value in the series with p-AKT(S473) (basal, stated with the α-Thrombin result) amounted to 15%. In addition, the “inhibition of phosphorylation of AKT stimulated by TGF-β1” value in the series with p-AKT(S473) (one hour TGF-β1) turned out to be 27%. In addition, the “decrease of AKT phosphorylation in the presence of α-Thrombin” value in the series on p-AKT(S473) (one hour α-Thrombin) was 15%. The “inhibition of TGF-β1 stimulated increase of CTGF” value in the series on CTGF is listed as 18%.
